Measured values published in patent US8304238B2, “Cell culture medium and immobilized preparation of cell adhesion protein or peptide” (Nat'l Institute for Environmental Studies, priority 2003, dated 2012).
Where no end group is shown, it is not given here. [ ]: non-standard residue; d: D form. Nle = CCCC[C@H](N)C(=O)O

Columns and labels:
[1] = system: alveolar type II epithelial cells (T2 cells); test: Inhibition of T2 cell adhesion by anti-FIB-1 antibody after MBAC/MAST-FIB-1 in 50% ethanol is air-dried/immobilized; format: cell-based; settings: 4 μg/ml antibody 4 hours; FIB-1 concentration 0.1-0.25 μg/well
Procedure: In the same manner as in Example 21, MBAC/MAST-FIB-1 was diluted with 50% ethanol, poured into wells, and air-dried/immobilized. Before T2 cells were seeded, 100 μl of 4 μg/ml anti-FIB-1 polyclonal antibody was poured into the well, and incubated for 4 hours to allow the antibody to bind to the immobilized FIB-1 peptide. Controls were treated with normal IgG. T2 cells were cultured, fixed, and stained in the same manner as in Example 21.

[2] = system: alveolar type II epithelial cells (T2 cells); test: Inhibition of T2 cell adhesion to immobilized pseudomatrix by treatment with polyclonal antibodies for the peptides; format: cell-based; settings: for Cell adhesion ability of immobilized pseudomatrix compared with coated FN: MBAC-peptide 1-10 μg/ml in DMEM; for Inhibition of cell adhesion by treatment with antibodies for the peptides: antibodies 4-10 μg/ml, 2-4 hours; for Inhibition of cell adhesion by anti-FIB-1 antibody: immobilized at 1 μg/ml
Procedure: (§1) Each pseudomatrix prepared in Example 13 to which cell adhesion peptide was bound (MBAC-peptide) was diluted in DMEM medium to the concentration of 1-10 μg/ml, poured into a 96-well by 100 μl each, and left still overnight in a CO2 incubator to be adsorbed and immobilized on the wells. Non-adsorbed MBAC-peptides were removed by rinsing well with DMEM medium. Next, 100 μl of antibodies diluted with serum-free DMEM to the concentration of 4-10 μg/ml was poured into a well, incubated for 2-4 hours to let the antibodies bind to the peptides. Normal IgG was used for control groups. Antibodies were removed after the treatment, T2 cells suspended at the concentration of 6×10^5 cells/ml were seeded by 100 μl each. After 1-day serum-free culture, T2 cells were fixed with 100 μl of methanol for 5 minutes, and stained with 50 μl of 0.4% crystal violet for 30 minutes. Excessive staining was washed with water, and the number of adhering cells was counted based on the absorbance of cytoplasm (A595).

[3] = system: alveolar type II epithelial cells (T2 cells); test: Adhesion of T2 cells to pseudomatrix adsorbed/immobilized from DMEM and competitive inhibition by free peptides; format: cell-based; settings: for Competitive inhibition of cell adhesion to pseudomatrix by free cell adhesion peptide: pseudomatrix 1-10 μg/ml in DMEM
Procedure: 200 mg each of hydrophobic binding-adsorptive polymer, MBAC, MAST or MMAC were dispersed into water, and 1 N NaOH solution was added little by little to dissolve them completely. 50 mg of WSC (1-ethyl-3-(3-dimethylamino propyl)carbodiimide, hydrochloride) was added to the resulting solution, and the reaction was conducted for 2 hours. Subsequently, 20 mg of peptide was added, and the reaction was continued with stirring for 2 hours at room temperature. After the reaction was finished, the reactant was subjected to dialysis with water to remove alkaline and low molecules, and then freeze-dried to prepare a pseudomatrix of interest.
as §1, with “μg/ml, and the resultant solution was” for “μg/ml,”, “Next,” for “Next, 100 μl of antibodies diluted with serum-free DMEM to the concentration of 4-10 μg/ml was poured into a well, incubated for 2-4 hours to let the antibodies bind to the peptides. Normal IgG was used for control groups. Antibodies were removed after the treatment,”, “seeded in the serum-free DMEM” for “seeded”
In the same manner as in Example 14, each pseudomatrix prepared in Example 13 to which cell adhesion peptide was bound (MAST-peptide) was adsorbed and immobilized on a 96-well, and T2 cells were seeded and cultured thereon.

[4] = system: alveolar type II epithelial cells (T2 cells); test: Adhesion of T2 cells to pseudomatrices dissolved in 50% ethanol and air-dried/immobilized, and competitive inhibition by free peptide; format: cell-based; settings: for Adhesion of T2 cells to pseudomatrix compared with coated FN: 50% ethanol, air-dried, 0.1-1.0 μg/well, 24 hours serum-free
Procedure: 50 μl of 2-20 μg/ml MAST-GRGDSP (Gly-Arg-Gly-Asp-Ser-Pro) (SEQ ID NO: 22) and MMAC-GRGDSP (SEQ ID NO: 22) dissolved in 50% ethanol were poured into wells, and air-dried/immobilized. Next, the wells to which MAST-GRGDSP (SEQ ID NO: 22) and MMAC-GRGDSP (SEQ ID NO: 22) (0.1-1.0 μg/well) were coated were rinsed with the serum-free DMEM medium. T2 cells suspended in the medium at the concentration of 6×10^4 cells/100 μl were seeded, and cultured in a CO2 incubator at 37° C. for 24 hours. Then, the cells were fixed with methanol, stained, and measured its absorbance according to the method in Example 7. A culture wherein FN was coated as a standard material was conducted simultaneously. The cell adhesion on FN was shown as a standard (100%).
In the same manner as in Example 18, MAST-GRGDSP (SEQ ID NO: 22) was dissolved in 50% ethanol, air-dried/immobilized on wells, and T2 cells were seeded/cultured thereon. Separately, just before the cells were seeded, 0.25-4.0 mg/ml of free GRGDSP (SEQ ID NO: 22) peptide was added to the cell suspension, and the culture and the subsequent measurement of absorbance were conducted in the same manner as described above. […] Further, when the applied amount of MAST-GRGDSP (SEQ ID NO: 22) was decreased, the immobilized amount of GRGDSP (SEQ ID NO: 22) decreased, and the competitive inhibition by free GRGDSP (SEQ ID NO: 22) peptide worked more effectively.
(§2) In the same manner as in Example 18, MMAC-GRGDSP (SEQ ID NO: 22) was dissolved in 50% ethanol, air-dried/immobilized on wells, and T2 cells were seeded/cultured thereon. Separately, just before the cells were seeded, 0.25-4.0 mg/ml of free GRGDSP (SEQ ID NO: 22) peptide was added to the cell suspension, and the culture and the subsequent measurement of absorbance were conducted in the same manner as described above.
as §2, with “MBAC/MAST-AG73 and -FIB-1 were” for “MMAC-GRGDSP (SEQ ID NO: 22) was”, “0.25” for “0.25-4.0”, “AG73 or FIB-1” for “GRGDSP (SEQ ID NO: 22)”

[5] = system: alveolar type II epithelial cells (T2 cells); test: Inhibition of T2 cell adhesion to immobilized pseudomatrices by heparin treatment; format: cell-based; settings: Nle used instead of Met
Procedure: Pseudomatrices prepared in Example 13 to which each cell adhesion peptide was bound (MBAC-peptide) was diluted in DMEM medium to the concentration of 1-10 μg/ml, poured into 96-wells by 100 μl each, and left still overnight in a CO2 incubator to be adsorbed and immobilized on the wells. Non-adsorbed MBAC-peptide was removed by rinsing well with DMEM medium. Next, 100 μl of DMEM in which 1 mg/ml of heparin was dissolved was poured into the wells, incubated for 2 hours to allow heparin to bind to the peptides. Control groups were treated with DMEM only. Heparin was removed after the treatment, and T2 cells suspended at the concentration of 6×10^5 cells/ml were seeded by 100 μl each. After 1-day serum-free culture, T2 cells were fixed with 100 μl of methanol for 5 minutes, and stained with 50 μl of 0.4% crystal violet for 30 minutes. Excessive staining was washed with water, and the number of adhering cells was counted based on the absorbance of cytoplasm (A595).

[6] = target: adhesion receptor present on the cell surface of T2 cells (not named); test: cell-based or functional assay
[7] = target: adhesion receptor present on the cell surface of T2 cells (not named); test: T2 cell adhesion to immobilized peptides, competitive inhibition by free peptides (FIGS. 8 and 9)
[8] = target: adhesion receptor present on the cell surface of T2 cells (not named); test: T2 cell adhesion to FIB-1 and the peptide co-immobilized on MMAC-coated wells, inhibition by free FIB-1 (FIG. 9)
[9] = target: syndecan present on the cell surface of T2 cells (alveolar type II epithelial cells); test: T2 cell adhesion to immobilized peptides, competitive inhibition by free peptides (FIGS. 8 and 9)
[10] = target: syndecan present on the cell surface of T2 cells (alveolar type II epithelial cells); test: T2 cell adhesion to FIB-1 and AG73 co-immobilized on MMAC-coated wells, inhibition by free FIB-1 (FIG. 9)
[11] = target: integrin on T2 cells (integrin α5β1); test: reference of the ratio; T2 cell adhesion to immobilized peptides (FIGS. 8 and 9)

With “MBAC-FIB-1: pseudomatrix: MBAC polymer reacted with FIB-1 peptide (YAVTGRGDSPAS)” the “Inhibition of cell adhesion by anti-FIB-1 polyclonal antibody” value [1] was “specifically inhibited by the antibody”, the “Cell adhesion ability of immobilized pseudomatrix compared with coated FN” value [2] was “the same level of cell adhesion ability as in the case where FN was coated” and the “Inhibition of cell adhesion by treatment with antibodies for the peptides” value [2] was “specifically inhibited”. The “Inhibition of cell adhesion by anti-FIB-1 antibody” value [2] was “equally inhibited”, the “Competitive inhibition of cell adhesion to pseudomatrix by free cell adhesion peptide” value [3] was “competitively inhibited” and the “Adhesion of T2 cells to pseudomatrix compared with coated FN” value [4] was “similarly to the case where FN was coated”.

With “MAST-FIB-1: pseudomatrix: MAST polymer reacted with FIB-1 peptide (YAVTGRGDSPAS)” the “Inhibition of cell adhesion by anti-FIB-1 polyclonal antibody” value [1] was “specifically inhibited by the antibody”, the “Inhibition of cell adhesion by anti-FIB-1 antibody” value [2] was “equally inhibited” and the “Degree of inhibition of cell adhesion by the antibody” value ([2]; immobilized at 2.5-10 μg/ml) was “low”. The “Cell adhesion ability of immobilized pseudomatrix compared with directly coated FN” value ([3]; 1-10 μg/ml in DMEM, 1-day serum-free culture, excluding 1 μg/ml of MBAC-AG73) was “the same level of cell adhesion ability as in the case where FN was directly coated”, the “Competitive inhibition of cell adhesion to pseudomatrix by free cell adhesion peptide” value [3] was “competitively inhibited by the free cell adhesion peptide, the degree is lower than the case of MBAC-peptide” and the “Competitive inhibition of cell adhesion by free peptide” value ([4]; 50% ethanol air-dried pseudomatrix, 0.25 mg/ml free AG73 or FIB-1) was “worked more effectively in accordance with the decrease in the amount of immobilized FIB-1”. For the same molecule, the “Adhesion of T2 cells to pseudomatrix compared with coated FN” value [4] was “similarly to the case where FN was coated”.

With “polymer-A5G73X: pseudomatrix: polymer (MBAC in FIG. 14) reacted with A5G73X peptide (RNRLHLS[Nle]LVRP; also: peptide reacted with MBAC polymer (pseudomatrix))” the “Cell adhesion ability of Nle pseudomatrix compared with immobilized Met peptide” value [5] was “the same level of cell adhesion ability”.

“MBAC-AG81.2X: pseudomatrix: MBAC polymer reacted with AG81.2X peptide (VKTEYIKRKAF[Nle]; also: peptide reacted with MBAC polymer (pseudomatrix))” was tested, and the “Cell adhesion ability of Nle pseudomatrix compared with immobilized Met peptide” value [5] was “the same level of cell adhesion ability”, the “Cell adhesion ability of immobilized pseudomatrix compared with coated FN” value [2] was “the same level of cell adhesion ability as in the case where FN was coated” and the “Inhibition of cell adhesion by treatment with antibodies for the peptides” value [2] was “specifically inhibited”.

With “MBAC-A4G82X: pseudomatrix: MBAC polymer reacted with A4G82X peptide (TLFLAHGRLVF[Nle]; also: peptide reacted with MBAC polymer (pseudomatrix))” the “Cell adhesion ability of Nle pseudomatrix compared with immobilized Met peptide” value [5] was “the same level of cell adhesion ability” and the “Competitive inhibition of cell adhesion to pseudomatrix by free cell adhesion peptide” value [3] was “inhibited by free A4G82 peptide”.

“polymer-AG76.8X: pseudomatrix: polymer (MBAC in FIG. 14) reacted with AG76.8X peptide (TLQLQEGRLHF[Nle]; also: peptide reacted with MBAC polymer (pseudomatrix))” was tested, and the “Cell adhesion ability of Nle pseudomatrix compared with immobilized Met peptide” value [5] was “the same level of cell adhesion ability”.

For GRGDSP [GRGDSP (Gly-Arg-Gly-Asp-Ser-Pro)], the competitive inhibition of T2 cell adhesion to immobilized MAST-GRGDSP by free GRGDSP peptide [6] was 4 mg/mL and the competitive inhibition of T2 cell adhesion to immobilized MMAC-GRGDSP by free GRGDSP peptide [6] was 1 to 4 mg/mL.

With GPLPSYLQFVGI [A5G71 (Gly-Pro-Leu-Pro-Ser-Tyr-Leu-Gln-Phe-Val-Gly-Ile)] the Binding strength to T2 cells, Ratio to FIB-1 (fold (ratio to FIB-1)) [7] was under 1 and the mixing ratio at the transitional midpoint (peptide to FIB-1) [8] was 1.

RKRLQVQLSIRT [AG73 (Arg-Lys-Arg-Leu-Gln-Val-Gln-Leu-Ser-Ile-Arg-Thr)] showed a Binding strength to T2 cells, Ratio to FIB-1 (fold (ratio to FIB-1)) [9] of 100 and a mixing ratio at the transitional midpoint (peptide to FIB-1) [10] of 0.01.

YAVTGRGDSPAS [FIB-1 (Tyr-Ala-Val-Thr-Gly-Arg-Gly-Asp-Ser-Pro-Ala-Ser)] showed a Binding strength to T2 cells, Ratio to FIB-1 (fold (ratio to FIB-1)) [11] of 1.
